How the values were obtained:
[1] = tested on: purple nutsedge; assay: Test B pre/postemergence purple nutsedge; assay type: in vivo, Cyperus rotundus
Method in brief: (§1)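 Herbicidal effect was estimated by eye on a ten-point control scale after plants spent twelve to sixteen days in a greenhouse following soil or foliar treatment. Foliar sprays targeted plants at one to four leaves; all doses were formulated in a non-phytotoxic solvent with surfactant.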

[2] = tested on: corn; assay: Test B pre/postemergence corn; assay type: in vivo, Zea mays
Method in brief: as §1

[3] = tested on: cocklebur; assay: Test B pre/postemergence cocklebur; assay type: in vivo, Xanthium strumarium
Method in brief: as §1

[4] = tested on: bedstraw; assay: Test B pre/postemergence bedstraw; assay type: in vivo, Galium aparine
Method in brief: as §1

[5] = tested on: morningglory; assay: Test B pre/postemergence morningglory; assay type: in vivo, Ipomoea hederacea
Method in brief: as §1

[6] = tested on: giant foxtail; assay: Test B pre/postemergence giant foxtail; assay type: in vivo, Setaria faberii
Method in brief: as §1

[7] = tested on: surinam grass; assay: Test B pre/postemergence surinam grass; assay type: in vivo, Brachiaria decumbens
Method in brief: as §1

[8] = tested on: pigweed; assay: Test B pre/postemergence pigweed; assay type: in vivo, Amaranthus retroflexus
Method in brief: as §1

[9] = tested on: wheat; assay: Test B pre/postemergence wheat; assay type: in vivo, Triticum aestivum
Method in brief: as §1

[10] = tested on: velvetleaf; assay: Test B pre/postemergence velvetleaf; assay type: in vivo, Abutilon theophrasti
Method in brief: as §1

[11] = tested on: soybean; assay: Test B pre/postemergence soybean; assay type: in vivo, Glycine max
Method in brief: as §1

[12] = tested on: crabgrass; assay: Test B pre/postemergence crabgrass; assay type: in vivo, Digitaria sanguinalis
Method in brief: as §1

[13] = tested on: sugar beet; assay: Test B pre/postemergence sugar beet; assay type: in vivo, Beta vulgaris
Method in brief: as §1

[14] = tested on: wild oat; assay: Test B pre/postemergence wild oat; assay type: in vivo, Avena fatua
Method in brief: as §1

[15] = tested on: rape; assay: Test B pre/postemergence rape; assay type: in vivo, Brassica napus
Method in brief: as §1

[16] = tested on: blackgrass; assay: Test B pre/postemergence blackgrass; assay type: in vivo, Alopecurus myosuroides
Method in brief: as §1

[17] = Postemergence, Rate 62 g/ha, scale of 0 to 10, 0 is no effect, 10 is complete control
[18] = Postemergence, Rate 125 g/ha, scale 0 to 10, 0 is no effect, 10 is complete control
[19] = Postemergence, Rate 500 g/ha, scale 0 to 10, 0 is no effect, 10 is complete control
[20] = Preemergence, Rate 125 g/ha, scale 0 to 10, 0 is no effect, 10 is complete control
[21] = Preemergence, Rate 500 g/ha, scale of 0 to 10 where 0 is no effect and 10 is complete control
[22] = Rate 250 g/ha, Postemergence, scale of 0 to 10 where 0 is no effect and 10 is complete control
[23] = Preemergence, Rate 62 g/ha, scale 0 to 10 (0 no effect, 10 complete control)

SMILES: CC(C)N(C(=O)n1oc(=O)n(C(C)C(=O)c2ccccc2)c1=O)c1ccc(Cl)cc1 (stereo not drawn) [Compound 541]
- Nutsedge plant response rating [1, 17]: 0
- Nutsedge plant response rating [1, 18]: 0
- Plant response rating, Nutsedge [1, 19]: 0
- Nutsedge plant response rating [1, 20]: 0
- Nutsedge plant response rating (0 to 10 scale) ([1]; Preemergence, Rate 250 g/ha): 0
- Nutsedge plant response rating [1, 21]: 0
- Plant response rating, Nutsedge [1, 22]: 0
- Corn plant response rating [2, 17]: 0
- Corn plant response rating [2, 18]: 0
- Plant response rating, Corn [2, 19]: 0
- Corn plant response rating [2, 23]: 0
- Corn plant response rating [2, 20]: 0
- Corn plant response rating (0 to 10 scale) ([2]; Preemergence, Rate 250 g/ha): 0
- Corn plant response rating [2, 21]: 0
- Plant response rating, Corn [2, 22]: 0
- Cocklebur plant response rating [3, 17]: 0
- Cocklebur plant response rating [3, 18]: 0
- Plant response rating, Cocklebur [3, 19]: 5
- Cocklebur plant response rating [3, 20]: 0
- Plant response rating, Cocklebur [3, 22]: 5
- Bedstraw plant response rating [4, 17]: 0
- Plant response rating, Bedstraw [4, 19]: 5
- Bedstraw plant response rating [4, 23]: 0
- Bedstraw plant response rating [4, 20]: 0
- Bedstraw plant response rating (0 to 10 scale) ([4]; Preemergence, Rate 250 g/ha): 0
- Bedstraw plant response rating [4, 21]: 3
- Plant response rating, Bedstraw [4, 22]: 5
- Morningglory plant response rating [5, 17]: 0
- Morningglory plant response rating [5, 18]: 1
- Plant response rating, Morningglory [5, 19]: 3
- Morningglory plant response rating [5, 23]: 0
- Morningglory plant response rating [5, 20]: 0
- Morningglory plant response rating (0 to 10 scale) ([5]; Preemergence, Rate 250 g/ha): 0
- Morningglory plant response rating [5, 21]: 0
- Plant response rating, Morningglory [5, 22]: 1
- Giant foxtail plant response rating [6, 17]: 0
- Giant foxtail plant response rating [6, 18]: 0
- Plant response rating, Giant foxtail [6, 19]: 2
- Giant foxtail plant response rating [6, 23]: 7
- Giant foxtail plant response rating [6, 20]: 10
- Giant foxtail plant response rating (0 to 10 scale) ([6]; Preemergence, Rate 250 g/ha): 10
- Giant foxtail plant response rating [6, 21]: 10
- Plant response rating, Giant foxtail [6, 22]: 0
- B. signalgrass plant response rating [7, 17]: 0
- B. signalgrass plant response rating [7, 18]: 0
- Plant response rating, B. signalgrass [7, 19]: 2
- B. signalgrass plant response rating [7, 23]: 0
- B. signalgrass plant response rating [7, 20]: 0
- B. signalgrass plant response rating (0 to 10 scale, 0 is no effect, 10 is complete control) ([7]; Preemergence, Rate 250 g/ha): 0
- B. signalgrass plant response rating [7, 21]: 5
- Plant response rating, B. signalgrass [7, 22]: 0
- Redroot pigweed plant response rating [8, 17]: 0
- Redroot pigweed plant response rating [8, 18]: 0
- Plant response rating, Redroot pigweed [8, 19]: 3
- Redroot pigweed plant response rating [8, 23]: 0
- Redroot pigweed plant response rating [8, 20]: 0
- Redroot pigweed plant response rating (0 to 10 scale) ([8]; Preemergence, Rate 250 g/ha): 0
- Redroot pigweed plant response rating [8, 21]: 0
- Plant response rating, Redroot pigweed [8, 22]: 0
- Wheat plant response rating [9, 17]: 0
- Wheat plant response rating [9, 18]: 0
- Plant response rating, Wheat [9, 19]: 0
- Wheat plant response rating [9, 23]: 0
- Wheat plant response rating [9, 20]: 0
- Wheat plant response rating (0 to 10 scale) ([9]; Preemergence, Rate 250 g/ha): 3
- Wheat plant response rating [9, 21]: 3
- Plant response rating, Wheat [9, 22]: 0
- Velvetleaf plant response rating [10, 17]: 0
- Velvetleaf plant response rating [10, 18]: 0
- Plant response rating, Velvetleaf [10, 19]: 0
- Velvetleaf plant response rating [10, 23]: 0
- Velvetleaf plant response rating [10, 20]: 0
- Velvetleaf plant response rating (0 to 10 scale) ([10]; Preemergence, Rate 250 g/ha): 0
- Velvetleaf plant response rating [10, 21]: 0
- Plant response rating, Velvetleaf [10, 22]: 0
- Soybean plant response rating [11, 17]: 0
- Soybean plant response rating [11, 18]: 0
- Plant response rating, Soybean [11, 19]: 2
- Soybean plant response rating [11, 23]: 0
- Soybean plant response rating [11, 20]: 0
- Soybean plant response rating (0 to 10 scale) ([11]; Preemergence, Rate 250 g/ha): 0
- Soybean plant response rating [11, 21]: 0
- Plant response rating, Soybean [11, 22]: 1
- Crabgrass plant response rating [12, 17]: 0
- Crabgrass plant response rating [12, 18]: 0
- Plant response rating, Crabgrass [12, 19]: 3
- Crabgrass plant response rating [12, 23]: 5
- Crabgrass plant response rating [12, 20]: 5
- Crabgrass plant response rating (0 to 10 scale) ([12]; Preemergence, Rate 250 g/ha): 10
- Crabgrass plant response rating [12, 21]: 10
- Plant response rating, Crabgrass [12, 22]: 0
- Sugarbeets plant response rating [13, 17]: 0
- Sugarbeets plant response rating [13, 18]: 0
- Plant response rating, Sugarbeets [13, 19]: 4
- Sugarbeets plant response rating [13, 23]: 0
- Sugarbeets plant response rating [13, 20]: 0
- Sugarbeets plant response rating (0 to 10 scale) ([13]; Preemergence, Rate 250 g/ha): 0
- Sugarbeets plant response rating [13, 21]: 2
- Plant response rating, Sugarbeets [13, 22]: 0
- Wild oats plant response rating [14, 17]: 0
- Wild oats plant response rating [14, 18]: 0
- Plant response rating, Wild oats [14, 19]: 2
- Wild oats plant response rating [14, 23]: 0
- Wild oats plant response rating [14, 20]: 0
- Wild oats plant response rating (0 to 10 scale) ([14]; Preemergence, Rate 250 g/ha): 5
- Wild oats plant response rating [14, 21]: 5
- Plant response rating, Wild oats [14, 22]: 0
- Rape plant response rating [15, 17]: 0
- Rape plant response rating [15, 18]: 0
- Plant response rating, Rape [15, 19]: 3
- Rape plant response rating [15, 23]: 0
- Rape plant response rating [15, 20]: 0
- Rape plant response rating (0 to 10 scale) ([15]; Preemergence, Rate 250 g/ha): 0
- Rape plant response rating [15, 21]: 0
- Plant response rating, Rape [15, 22]: 3
- Blackgrass plant response rating [16, 17]: 0
- Blackgrass plant response rating [16, 18]: 0
- Plant response rating, Blackgrass [16, 19]: 0
- Blackgrass plant response rating [16, 23]: 0
- Blackgrass plant response rating [16, 20]: 0
- Blackgrass plant response rating (0 to 10 scale) ([16]; Preemergence, Rate 250 g/ha): 0
- Blackgrass plant response rating [16, 21]: 2
- Plant response rating, Blackgrass [16, 22]: 0

Source: patent publication US6737383B1, “Herbicidal oxadiazolidines” (priority 1999, dated 2004)
